Assay results published in patent US8258099B2, “Pin1-modulating compounds and methods of use thereof” (Max-Planck-Gesellschaft zur Foerderung der Wissenschaften …, priority 2004, dated 2012).
Square brackets hold non-standard residues; d marks the D form. Peptide text beside a SMILES is read from it. d(pT) = C[C@H](OP(=O)(O)O)[C@@H](N)C(=O)O; 2Nal = N[C@@H](Cc1ccc2ccccc2c1)C(=O)O; Pip = O=C(O)[C@@H]1CCCCN1

Tests used:
[1] = biological target: T1, interaction of MPM-2 antigens with GST-hPin1 (Homo sapiens, UniProt Q13526); assay: MPM-2 competition assay; assay type: binding; settings: mitotic HeLa cell lysate, 8 μM GST-hPin1
T1 construct: made in house
T1 sequence (Q13526 whole entry): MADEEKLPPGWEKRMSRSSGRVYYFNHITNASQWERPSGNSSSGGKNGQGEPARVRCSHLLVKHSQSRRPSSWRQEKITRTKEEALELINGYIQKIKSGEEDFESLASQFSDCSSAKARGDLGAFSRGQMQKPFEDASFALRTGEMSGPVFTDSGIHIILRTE
Protocol: FIG. 7 depicts the influence of peptide 17 on the interaction of MPM-2 antigens with hPin1. The indicated concentration of peptide 17 or its nonphosphorylated derivative (control) was incubated with an 8 μM solution of GST-hPin1. After addition of mitotic HeLa cell lysate, GST-hPin1 was extracted from the respective mixture using glutathione sepharose. Samples were analyzed regarding extracted GST-hPin1 and coprecipitated MPM-2 antigenes by SDS PAGE and western blot analysis. Untreated lysate of mitotic HeLa cells was loaded on the first line (extract). MPM-2 antigenes were detected using the monoclonal anti MPM-2 antibody (mouse). GST-hPin1 was detected using an anti hPin1 PPIase domain antiserum (rabbit). Horseradish peroxidase-conjugated antibodies from mouse or rabbit were used as secondary antibodies. […]
1.3 mM of Peptide 17 or its nonphosphorylated derivative were incubated with GST-hPin1 (8 μM) for 2 hours at 4° C. […] Following SDS-PAGE, the samples were analyzed by western blot analysis. GST-hPin1 and coextracted MPM-2 antigens were detected using an anti hPin1 PPIase domain antiserum (rabbit) or monoclonal anti MPM-2 antibody (Upstate Biotechnology) from mouse. […]
MPM-2 antigens are mitotic phosphoproteins that are specifically recognized by the monoclonal antibody MPM-2. […] The coextracted MPM-2 antigenes were detected after SDS PAGE by western blot analysis using the anti MPM-2 antibody. […]

hCyp18 = hCyp18 (Homo sapiens, UniProt P62937); assay: Protease coupled PPIase assay, hCyp18; assay type: biochemical
hCyp18, sequence (P62937 whole entry): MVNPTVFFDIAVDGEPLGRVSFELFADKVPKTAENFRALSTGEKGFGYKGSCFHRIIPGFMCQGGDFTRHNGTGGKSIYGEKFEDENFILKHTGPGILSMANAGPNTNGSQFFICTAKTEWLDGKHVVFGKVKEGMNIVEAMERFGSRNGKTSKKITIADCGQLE
Protocol: PPIase activities were monitored on a Hewlett-Packard 8452A diode array spectrophotometer according to Fischer et al., 1984 and Zhang et al., 2002. The hPar14 PPIase activity was measured with Suc-Ala-Arg-Pro-Phe-NH-Np (SEQ ID NO: 3) (final concentration 75 μM) as substrate and α-chymotrypsin (final concentration 60 μM) as isomer specific protease. PPIase activity of hCyp 18 and FKBP12 were measured using Suc-Ala-Ala-Pro-Phe-NH-Np (SEQ ID NO: 7) as substrate (final concentration 16 μM) and α-chymotrypsin (final concentration 60 μM) as isomer specific protease. PPIase activity of hPin1 was measured with Ac-Ala-Ala-Ser(PO3H2)-Pro-Arg-NH-Np (SEQ ID NO: 4) (final concentration 10 μM) as substrate and trypsin (final concentration 60 μM) as isomer specific protease. […] Measurements were monitored at 390 nm.
Data analysis was performed by single-exponential nonlinear regression using the SigmaPlot Scientific Graphing System Version 5.00 (Jandel Corp.). […] The rate constant k0 was determined in the absence of Pin1. The first order rate constants kenz was calculated from the equation kenz=kobs−k0. IC50 and Ki values were determined by fitting the first order rate constants kenz against the concentration of the inhibitory peptide by nonlinear regression according to Schutkowski et al., 1995 or a model for tight binding inhibitors (Morrison, 1969).

SMILES: CC(=O)N[C@@H](Cc1ccccc1)C(=O)N[C@@H](C(=O)N1CCCC[C@H]1C(=O)N[C@@H](Cc1ccc2ccccc2c1)C(=O)N[C@@H](CCC(N)=O)C(N)=O)[C@H](C)OP(=O)(O)O [Peptide 17, Ac-Phe-D-Thr(PO3H2)-Pip-Nal-Gln-NH2] (Ac-F[d(pT)][Pip][2Nal]Q-NH2)
- influence on interaction of MPM-2 antigenes with GST-hPin1 [1]: did not influence
- inhibition of Cyp18 (hCyp18): no inhibition
